The values below come from ChEMBL document CHEMBL3991601, “The target landscape of clinical kinase drugs” (Science, 2017).

Each structure is given as a SMILES string. The source made the active and inactive calls. Rule as the data show it, for most assays here: actives have a measured Kd and inactives only a lower limit.

Targets include Actin-related protein 2 (Homo sapiens, UniProt P61160); Aurora kinase B (Homo sapiens, UniProt Q96GD4); LIM domain kinase 2 (Homo sapiens, UniProt P53671).
The target in assay [1] is AP2-associated protein kinase 1 (Homo sapiens, UniProt Q2M2I8).
The target of assay [2] is Tyrosine-protein kinase ABL1 (Homo sapiens, UniProt P00519).
Sequence of Tyrosine-protein kinase ABL1 (P00519 whole entry): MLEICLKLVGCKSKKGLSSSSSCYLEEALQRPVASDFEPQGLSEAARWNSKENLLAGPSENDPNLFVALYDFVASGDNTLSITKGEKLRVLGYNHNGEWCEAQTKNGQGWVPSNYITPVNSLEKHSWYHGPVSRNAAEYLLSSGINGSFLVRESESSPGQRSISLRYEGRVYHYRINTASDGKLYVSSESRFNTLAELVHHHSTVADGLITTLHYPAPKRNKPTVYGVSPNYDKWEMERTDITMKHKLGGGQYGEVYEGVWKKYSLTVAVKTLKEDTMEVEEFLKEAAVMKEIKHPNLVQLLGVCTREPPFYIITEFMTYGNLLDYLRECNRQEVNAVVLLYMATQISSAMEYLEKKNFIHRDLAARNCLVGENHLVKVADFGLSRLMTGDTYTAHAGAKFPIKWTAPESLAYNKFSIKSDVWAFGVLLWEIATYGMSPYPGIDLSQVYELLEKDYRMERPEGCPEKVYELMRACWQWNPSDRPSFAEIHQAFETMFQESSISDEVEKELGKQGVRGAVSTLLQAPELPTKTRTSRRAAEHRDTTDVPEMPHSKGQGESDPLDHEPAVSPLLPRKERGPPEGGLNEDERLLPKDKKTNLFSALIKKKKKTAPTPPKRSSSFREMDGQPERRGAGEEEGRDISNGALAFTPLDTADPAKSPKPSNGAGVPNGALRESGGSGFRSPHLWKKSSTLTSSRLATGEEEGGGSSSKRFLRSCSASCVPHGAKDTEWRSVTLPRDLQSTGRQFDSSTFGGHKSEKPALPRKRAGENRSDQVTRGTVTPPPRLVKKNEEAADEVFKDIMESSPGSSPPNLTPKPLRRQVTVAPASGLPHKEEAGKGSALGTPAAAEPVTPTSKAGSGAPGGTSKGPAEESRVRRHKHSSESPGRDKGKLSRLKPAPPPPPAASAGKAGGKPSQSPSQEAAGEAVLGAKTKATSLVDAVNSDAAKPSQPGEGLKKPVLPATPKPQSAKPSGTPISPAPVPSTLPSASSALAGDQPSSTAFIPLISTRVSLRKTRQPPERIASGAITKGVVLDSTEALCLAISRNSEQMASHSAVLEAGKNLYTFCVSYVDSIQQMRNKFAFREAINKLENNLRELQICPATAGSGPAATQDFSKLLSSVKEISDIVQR
For assay [3], the target named is Calcium/calmodulin-dependent protein kinase type II subunit delta (Homo sapiens, UniProt Q13557).
Sequence of Calcium/calmodulin-dependent protein kinase type II subunit delta (Q13557 whole entry): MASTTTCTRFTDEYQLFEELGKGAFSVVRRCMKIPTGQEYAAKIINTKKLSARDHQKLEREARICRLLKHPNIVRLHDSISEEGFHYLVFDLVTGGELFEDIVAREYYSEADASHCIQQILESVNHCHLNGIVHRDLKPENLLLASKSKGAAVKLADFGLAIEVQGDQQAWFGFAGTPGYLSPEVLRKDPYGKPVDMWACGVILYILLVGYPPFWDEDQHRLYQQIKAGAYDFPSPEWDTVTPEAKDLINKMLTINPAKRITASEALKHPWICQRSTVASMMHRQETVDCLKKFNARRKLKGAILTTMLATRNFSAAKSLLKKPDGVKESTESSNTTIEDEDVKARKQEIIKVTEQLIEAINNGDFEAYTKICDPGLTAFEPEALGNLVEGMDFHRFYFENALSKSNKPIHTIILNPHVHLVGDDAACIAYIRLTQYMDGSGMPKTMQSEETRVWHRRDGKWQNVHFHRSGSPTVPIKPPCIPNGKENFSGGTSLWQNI
Assay [4] deals with Serine/threonine-protein kinase MRCK beta (Homo sapiens, UniProt Q9Y5S2).
Assay [5] concerns the target T1, Ferrochelatase, mitochondrial (Homo sapiens, UniProt P22830).
T1 sequence (P22830 whole entry): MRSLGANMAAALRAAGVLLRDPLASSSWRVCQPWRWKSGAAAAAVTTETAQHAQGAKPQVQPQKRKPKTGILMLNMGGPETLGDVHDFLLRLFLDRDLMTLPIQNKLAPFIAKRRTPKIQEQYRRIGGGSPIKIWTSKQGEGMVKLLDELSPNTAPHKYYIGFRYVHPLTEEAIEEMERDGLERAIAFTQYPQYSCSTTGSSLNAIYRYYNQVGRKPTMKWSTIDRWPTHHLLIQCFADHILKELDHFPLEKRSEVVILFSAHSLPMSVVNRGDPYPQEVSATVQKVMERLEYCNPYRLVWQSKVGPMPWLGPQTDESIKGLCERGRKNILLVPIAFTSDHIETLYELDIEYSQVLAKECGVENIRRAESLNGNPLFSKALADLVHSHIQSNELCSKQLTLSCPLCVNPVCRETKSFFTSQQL

Assay [6] addresses Guanine nucleotide-binding protein G(i) subunit alpha-2 (Homo sapiens, UniProt P04899).
In assay [7] the target is G protein-coupled receptor kinase 6 (Homo sapiens, UniProt P43250).
Assay [8] addresses Tyrosine-protein kinase JAK1 (Homo sapiens, UniProt P23458).
For assay [9], the target named is Mitogen-activated protein kinase 8 (Homo sapiens, UniProt P45983).
Sequence of Mitogen-activated protein kinase 8 (P45983 whole entry): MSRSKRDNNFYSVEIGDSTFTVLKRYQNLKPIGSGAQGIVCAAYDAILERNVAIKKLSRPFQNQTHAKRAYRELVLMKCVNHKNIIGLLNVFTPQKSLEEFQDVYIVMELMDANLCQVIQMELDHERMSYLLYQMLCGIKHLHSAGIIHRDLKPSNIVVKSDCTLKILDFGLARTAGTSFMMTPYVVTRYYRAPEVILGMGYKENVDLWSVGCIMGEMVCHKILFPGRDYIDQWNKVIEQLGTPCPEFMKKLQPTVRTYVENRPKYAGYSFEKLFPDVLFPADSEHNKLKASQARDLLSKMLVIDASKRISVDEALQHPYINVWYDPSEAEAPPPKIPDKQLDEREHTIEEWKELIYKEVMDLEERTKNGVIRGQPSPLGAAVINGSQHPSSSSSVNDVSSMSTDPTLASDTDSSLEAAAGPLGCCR
The target of assay [10] is Maternal embryonic leucine zipper kinase (Homo sapiens, UniProt Q14680).
Sequence of Maternal embryonic leucine zipper kinase (Q14680 whole entry): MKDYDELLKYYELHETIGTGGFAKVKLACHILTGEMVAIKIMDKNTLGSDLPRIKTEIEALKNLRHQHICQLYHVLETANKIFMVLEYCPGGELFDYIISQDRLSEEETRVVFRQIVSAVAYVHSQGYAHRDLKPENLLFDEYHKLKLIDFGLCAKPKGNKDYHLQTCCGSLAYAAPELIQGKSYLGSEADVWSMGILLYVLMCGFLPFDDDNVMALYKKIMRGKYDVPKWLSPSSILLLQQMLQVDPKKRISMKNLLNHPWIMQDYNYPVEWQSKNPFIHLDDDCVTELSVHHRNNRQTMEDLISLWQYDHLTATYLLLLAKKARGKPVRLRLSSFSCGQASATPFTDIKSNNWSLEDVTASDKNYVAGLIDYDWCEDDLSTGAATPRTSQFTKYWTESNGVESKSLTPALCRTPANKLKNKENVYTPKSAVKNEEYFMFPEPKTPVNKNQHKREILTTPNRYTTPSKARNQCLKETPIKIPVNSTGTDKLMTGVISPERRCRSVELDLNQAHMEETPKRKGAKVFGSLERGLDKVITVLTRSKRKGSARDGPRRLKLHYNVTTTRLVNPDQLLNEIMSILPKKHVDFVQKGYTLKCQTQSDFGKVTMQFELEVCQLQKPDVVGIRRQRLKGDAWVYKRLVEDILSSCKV
Assay [11] addresses Serine/threonine-protein kinase N1 (Homo sapiens, UniProt Q16512).
Assay [12] addresses T2, Serine/threonine-protein kinase PLK4 (Homo sapiens, UniProt O00444).
T2 sequence (O00444 whole entry): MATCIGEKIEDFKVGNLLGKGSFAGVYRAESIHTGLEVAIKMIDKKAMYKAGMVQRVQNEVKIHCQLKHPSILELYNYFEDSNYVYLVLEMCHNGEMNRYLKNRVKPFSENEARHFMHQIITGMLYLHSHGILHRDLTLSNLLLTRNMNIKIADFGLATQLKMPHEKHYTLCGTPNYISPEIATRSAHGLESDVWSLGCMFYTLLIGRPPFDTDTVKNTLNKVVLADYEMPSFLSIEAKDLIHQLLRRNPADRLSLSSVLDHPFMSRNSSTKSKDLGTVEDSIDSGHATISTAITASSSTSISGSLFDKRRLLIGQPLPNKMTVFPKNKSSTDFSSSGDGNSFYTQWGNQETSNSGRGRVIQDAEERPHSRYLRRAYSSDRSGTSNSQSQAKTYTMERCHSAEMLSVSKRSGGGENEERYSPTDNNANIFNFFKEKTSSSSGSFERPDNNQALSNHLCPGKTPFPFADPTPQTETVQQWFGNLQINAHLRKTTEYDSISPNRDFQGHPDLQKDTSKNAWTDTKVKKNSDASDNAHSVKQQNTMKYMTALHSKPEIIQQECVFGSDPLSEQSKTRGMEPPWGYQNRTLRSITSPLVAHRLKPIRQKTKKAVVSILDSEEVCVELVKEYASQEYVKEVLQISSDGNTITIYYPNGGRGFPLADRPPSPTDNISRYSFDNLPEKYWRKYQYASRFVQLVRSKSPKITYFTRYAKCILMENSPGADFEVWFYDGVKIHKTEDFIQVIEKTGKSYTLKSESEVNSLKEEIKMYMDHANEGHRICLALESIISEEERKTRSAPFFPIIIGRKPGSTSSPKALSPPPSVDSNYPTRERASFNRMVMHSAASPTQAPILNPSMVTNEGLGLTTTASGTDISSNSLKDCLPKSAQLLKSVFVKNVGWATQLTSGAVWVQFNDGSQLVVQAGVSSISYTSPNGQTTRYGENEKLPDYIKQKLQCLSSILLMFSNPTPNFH

Assay [13] addresses 26S proteasome regulatory subunit 6B (Homo sapiens, UniProt P43686).
The target of assay [14] is GTP-binding nuclear protein Ran (Homo sapiens, UniProt P62826).
Assay [15] concerns the target Ribosomal protein S6 kinase alpha-1 (Homo sapiens, UniProt Q15418).

Broadly, the Kd is the equilibrium constant for the complex coming apart.
Also: in the data inactive means no Kd found up to 30 µM.

Sequence of Tyrosine-protein kinase JAK1 (P23458 whole entry): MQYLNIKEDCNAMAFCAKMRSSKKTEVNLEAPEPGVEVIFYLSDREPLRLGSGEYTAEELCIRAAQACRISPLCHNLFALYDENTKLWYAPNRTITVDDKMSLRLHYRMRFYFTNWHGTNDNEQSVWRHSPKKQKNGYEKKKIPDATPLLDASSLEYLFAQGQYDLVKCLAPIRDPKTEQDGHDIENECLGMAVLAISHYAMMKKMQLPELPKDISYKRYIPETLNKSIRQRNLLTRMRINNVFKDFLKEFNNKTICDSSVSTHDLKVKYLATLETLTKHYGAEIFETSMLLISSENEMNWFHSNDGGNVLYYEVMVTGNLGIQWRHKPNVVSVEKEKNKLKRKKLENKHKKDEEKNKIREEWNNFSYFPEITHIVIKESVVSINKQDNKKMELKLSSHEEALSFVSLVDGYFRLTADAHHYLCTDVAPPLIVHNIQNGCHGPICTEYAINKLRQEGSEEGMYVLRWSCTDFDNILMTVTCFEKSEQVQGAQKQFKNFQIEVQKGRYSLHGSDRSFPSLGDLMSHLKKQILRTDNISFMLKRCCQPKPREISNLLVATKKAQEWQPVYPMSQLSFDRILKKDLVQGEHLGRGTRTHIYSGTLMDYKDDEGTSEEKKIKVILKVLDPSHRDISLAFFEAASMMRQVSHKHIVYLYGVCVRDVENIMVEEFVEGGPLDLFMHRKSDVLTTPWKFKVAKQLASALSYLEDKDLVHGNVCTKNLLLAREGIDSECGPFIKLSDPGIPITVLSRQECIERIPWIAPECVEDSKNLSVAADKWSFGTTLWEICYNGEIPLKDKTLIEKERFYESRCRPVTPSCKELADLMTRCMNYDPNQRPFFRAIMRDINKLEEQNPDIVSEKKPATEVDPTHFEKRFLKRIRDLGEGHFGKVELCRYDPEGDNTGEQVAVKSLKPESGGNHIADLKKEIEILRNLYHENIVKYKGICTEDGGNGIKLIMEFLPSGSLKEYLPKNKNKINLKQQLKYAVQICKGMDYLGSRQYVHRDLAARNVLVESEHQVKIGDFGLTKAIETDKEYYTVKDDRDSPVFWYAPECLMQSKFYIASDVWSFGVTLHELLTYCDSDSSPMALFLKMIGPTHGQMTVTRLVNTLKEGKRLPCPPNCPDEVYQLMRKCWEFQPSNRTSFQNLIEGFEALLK
Sequence of Guanine nucleotide-binding protein G(i) subunit alpha-2 (P04899 whole entry): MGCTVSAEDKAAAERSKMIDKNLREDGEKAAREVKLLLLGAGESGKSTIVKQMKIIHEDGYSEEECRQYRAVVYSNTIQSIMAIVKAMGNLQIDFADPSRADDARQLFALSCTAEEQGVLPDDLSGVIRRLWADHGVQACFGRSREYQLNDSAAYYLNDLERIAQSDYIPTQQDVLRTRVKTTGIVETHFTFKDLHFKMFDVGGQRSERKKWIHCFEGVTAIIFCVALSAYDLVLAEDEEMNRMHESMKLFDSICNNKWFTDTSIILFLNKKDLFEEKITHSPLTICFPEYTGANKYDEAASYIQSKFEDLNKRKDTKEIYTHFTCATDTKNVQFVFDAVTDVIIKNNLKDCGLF
Sequence of Ribosomal protein S6 kinase alpha-1 (Q15418 whole entry): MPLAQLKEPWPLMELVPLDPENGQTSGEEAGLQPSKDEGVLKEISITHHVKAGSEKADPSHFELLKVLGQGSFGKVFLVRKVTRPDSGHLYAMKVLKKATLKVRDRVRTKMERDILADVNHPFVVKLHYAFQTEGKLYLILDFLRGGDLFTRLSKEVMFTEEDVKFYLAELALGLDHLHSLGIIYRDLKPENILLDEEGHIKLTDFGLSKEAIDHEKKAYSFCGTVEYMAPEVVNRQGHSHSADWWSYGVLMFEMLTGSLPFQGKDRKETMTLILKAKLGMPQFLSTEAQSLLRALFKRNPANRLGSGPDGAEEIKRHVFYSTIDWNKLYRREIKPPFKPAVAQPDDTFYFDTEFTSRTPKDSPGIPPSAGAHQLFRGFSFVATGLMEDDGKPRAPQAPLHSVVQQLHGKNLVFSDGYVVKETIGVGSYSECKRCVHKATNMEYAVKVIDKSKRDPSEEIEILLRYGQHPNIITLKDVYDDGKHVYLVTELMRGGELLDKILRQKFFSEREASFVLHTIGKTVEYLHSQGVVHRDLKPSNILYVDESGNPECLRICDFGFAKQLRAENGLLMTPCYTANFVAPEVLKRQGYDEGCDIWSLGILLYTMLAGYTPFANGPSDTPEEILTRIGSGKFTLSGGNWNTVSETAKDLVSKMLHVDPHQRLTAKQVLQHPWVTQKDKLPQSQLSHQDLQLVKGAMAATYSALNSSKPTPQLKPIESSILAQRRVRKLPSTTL

Regarding `O=C1NC(=O)[C@@H](c2cn3c4c(cccc24)CCC3)[C@@H]1c1c[nH]c2ccccc12` [TIVANTINIB], the Kd (in assay [1]; in assay [2]; at Actin-related protein 2; at Aurora kinase B; in [3]; in [4]) was > 30 µM (inactive) throughout. Further, the Kd (in [5]; in [6]; in assay [7]; in assay [8]; on LIM domain kinase 2; in assay [9]) was > 30 µM (inactive) in each case. The Kd in [10], in [11], in [12], in assay [13], in assay [14] and in [15] was > 30 µM (inactive) throughout.

In the case of `CN1C/C=C/CCOc2cccc(c2)-c2ccnc(n2)Nc2cccc(c2)C1` [ZOTIRACICLIB], the Kd in assay [1] was > 30 µM (inactive); in assay [2], 32.2 µM; at Actin-related protein 2, > 30 µM (inactive); on Aurora kinase B, > 30 µM (inactive); in [3], > 30 µM (inactive); in [4], 46.9 µM. Also, the equilibrium dissociation constant (Kd) in assay [5] was 0.243 µM; in assay [6] it was > 30 µM (inactive); in assay [7], > 30 µM (inactive); in assay [8], 2.01 µM (active); at LIM domain kinase 2 it was > 30 µM (inactive); in assay [9], 1.46 µM (active). Moreover, the Kd in [10] is > 30 µM (inactive); in [11] it was 1.69 µM (active); in assay [12] it was > 30 µM (inactive); in assay [13], > 30 µM (inactive); in [14] it was > 30 µM (inactive); in assay [15], > 30 µM (inactive).
